Results as given in patent US10940139B2, “Compounds that interact with the Ras superfamily for the treatment of cancers, inflammatory diseases, rasopathies, and fibrotic disease” (Shy Therapeutics LLC, priority 2017, dated 2021).

What follows are compounds tested on MAPK phosphorylation in PANC-1 pancreatic cancer cell line (assay: MAPK cell-based phosphorylation assay (cell-direct ELISA, EGF stimulation)). Details: Homo sapiens.
Outline: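 Cell-direct ELISA measured phospho-MAPK, with fluorescence read at 595 nm from AmpliFlu Red. Before fixation, PANC-1 cells starved overnight received 6 hours of compound (30 μM single dose or serial dilutions, 0.3% DMSO, 37° C), followed by 1.5 ng/ml EGF for 15 min.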

SMILES	IC50 [µM]
Oc1nc(-c2ccccn2)nc2c(-c3ccccc3F)csc12 [drawing 1207]	2 to 10
Oc1nc(-c2ccccn2)nc2c(-c3ccc(F)cc3F)csc12 [drawing 1210]	2 to 10
Oc1nc(-c2ccccn2)nc2c(-c3cccc(C(F)(F)F)c3)csc12 [drawing 1212]	< 2
Oc1nc(-c2ccccn2)nc2c(-c3ccsc3)csc12 [drawing 1214]	< 2

Same assay, conditions: Homo sapiens, * = tested at 10 μM

SMILES	inhibition at 10 µM [%]
O=C(COCc1ccnc(O)c1)Nc1nc(-c2ccccn2)nc2sccc12 [drawing 1199]	1 to 25
O=C(c1csc2c(O)nc(-c3ccccn3)nc12)N1CCNC(c2cn[nH]c2)C1 (centres unmarked) [drawing 1200]	25 to 50
Nc1nc(-c2ccccn2)nc2c(-c3ccccc3)csc12 [drawing 1201]	25 to 50
Oc1nc(-c2ccccn2)nc2c(-c3cc(F)ccc3OC(F)F)csc12 [drawing 1202]	1 to 25
Oc1nc(-c2ccccn2)nc2c(-c3ccc(OC4CCCC4)cc3)csc12 [drawing 1203]	25 to 50
Oc1nc(-c2ccccn2)nc2c(-c3ccc(C4CCC4)cc3)csc12 [drawing 1204]	51 to 75
Oc1nc(-c2ccccn2)nc2c(-c3ccccc3OC3CCCCC3)csc12 [drawing 1205]	1 to 25
Oc1nc(-c2ccccn2)nc2c(-c3ccc(OC4CCOCC4)cc3)csc12 [drawing 1206]	1 to 25
Oc1nc(-c2ccccn2)nc2c(-c3ccccc3F)csc12 [drawing 1207]	76 to 100
COc1cc(C)c(-c2csc3c(O)nc(-c4ccccn4)nc23)cc1C [drawing 1208]	1 to 25
COc1ccccc1-c1csc2c(O)nc(-c3ccccn3)nc12 [drawing 1209]	1 to 25
Oc1nc(-c2ccccn2)nc2c(-c3ccc(F)cc3F)csc12 [drawing 1210]	76 to 100
COc1cccc(-c2csc3c(O)nc(-c4ccccn4)nc23)c1 [drawing 1211]	1 to 25
Oc1nc(-c2ccccn2)nc2c(-c3cccc(C(F)(F)F)c3)csc12 [drawing 1212]	76 to 100
COc1ccc(F)cc1-c1csc2c(O)nc(-c3ccccn3)nc12 [drawing 1213]	25 to 50
Oc1nc(-c2ccccn2)nc2c(-c3ccsc3)csc12 [drawing 1214]	76 to 100
Oc1nc(-c2ccccn2)nc2c(-c3ccc(OC(F)F)cc3F)csc12 [drawing 1215]	51 to 75

SMILES	inhibition at 10 µM [%]
CC(C)COc1ccc(-c2csc3c(O)nc(-c4ccccn4)nc23)cn1 [drawing 1216]	51 to 75
Cc1cc(OC(F)F)ccc1-c1csc2c(O)nc(-c3ccccn3)nc12 [drawing 1217]	1 to 25
Oc1nc(-c2ccccn2)nc2c(-c3ccc4c(c3)OCO4)csc12 [drawing 1218]	76 to 100
CC(C)(O)c1ccc(-c2csc3c(O)nc(-c4ccccn4)nc23)c(F)c1 [drawing 1219]	76 to 100
COc1ccc(-c2csc3c(O)nc(-c4ccccn4)nc23)c(C)c1 [drawing 1220]	76 to 100
Oc1nc(-c2ccccn2)nc2c(-c3ccccc3C(F)F)csc12 [drawing 1221]	76 to 100
COc1cc(-c2csc3c(O)nc(-c4ccccn4)nc23)cnc1C(F)(F)F [drawing 1222]	1 to 25
OCC1(c2ccc(-c3csc4c(O)nc(-c5ccccn5)nc34)cc2)CC1 [drawing 1223]	51 to 75
Oc1nc(-c2ccccn2)nc2c(-c3ccc(OC4CCCCC4)cc3)csc12 [drawing 1224]	25 to 50
Cc1cnccc1-c1csc2c(O)nc(-c3ccccn3)nc12 [drawing 1225]	1 to 25
O=C(CCn1ccnc1)Nc1nc(-c2ccccn2)nc2sccc12 [drawing 1226]	1 to 25
O=C(CCc1nn[nH]n1)Nc1nc(-c2ccccn2)nc2sccc12 [drawing 1227]	25 to 50
O=C(CCc1cncnc1)Nc1nc(-c2ccccn2)nc2sccc12 [drawing 1228]	1 to 25
Nc1nc(-c2ccccn2)nc2c(Br)csc12 [drawing 1229]	25 to 50
Cc1sc2c(N)nc(-c3ccccn3)nc2c1Br [drawing 1230]	1 to 25
Nc1nc(-c2ccccn2)nc2scc(Br)c12 [drawing 1231]	1 to 25
COC(=O)c1csc2nc(-c3ccccn3)nc(N)c12 [drawing 1232]	25 to 50
